Assay results taken from patent publication US9671406B2, “SPARC and methods of use thereof” (Abraxis BioScience, LLC, priority 2006, dated 2017).

System: gp60-mediated caveolar transcytosis
Assay: Inhibition of transport of paclitaxel from ABX across endothelial monolayers
Assay type: cell-based, human
Details: FIG. 4
Source text: Transport was dependent on albumin.

Row | Compound | effect on transport of paclitaxel from ABX across endothelial monolayers
1 | β-methyl cyclodextrin [BMC] | inhibited
2 | CCN1C(=O)C=CC1=O [NEM] | inhibited
